Measurements: patent US7745481B2, “Methods and compositions for the treatment and prevention of tumors, tumor-related disorders and cachexia” (Daiichi Sankyo Company, Limited, priority 1997, dated 2010)

Tests used:
[1] = system: mouse sarcoma S-180 cells; test: Antitumor effect against mouse sarcoma S-180 cells; format: in vivo; conditions: 1 mg/kg oral once per day for 5 days; tumor volume on day 7; Balb/c nude mice
Description: 1×10^6 mouse sarcoma S-180 cells were transplanted subcutaneously in Balb/c nude mice (females, 8 weeks old) in groups of 10 each.
The test compound, Compound No. 2-118, was suspended in sterilized distilled water containing 0.5% w/v carboxymethyl cellulose (CMC) and administered orally once per day for 5 days starting on the day the tumor cells were transplanted.
Antitumor activity was assessed according to the following equation to determine the tumor growth inhibitory rate (GI %) on day 7 after the transplantation. GI(%)=(1−Vt/Vc)×100 • Vt: Mean tumor volume on day 7 in a group administered test compound (*) • Vc: Mean tumor volume on day 7 in an untreated control group (*) • *: Tumor volume is defined as ½×[tumor long axis]×[tumor short axis]^2

[2] = system: Human colon cancer KM12-HX cells; test: Antitumor effect against human colon cancer KM12-HX cells (orthotopic transplant in nude mice); format: in vivo, mouse; conditions: 9 doses (days 3-7 and 10-13), tumor weight on day 14, Balb/c nude mice
Excerpt: Human colon cancer KM12-HX cells were orthotopically transplanted into the cecum of nude mice according to the method of Fu et al. [X. Fu et al., Anticancer Res., 12 (1992)] using Balb/c nude mice (females, 7 weeks old) in groups of 10 each.
Specifically, an incision was made into the left lower abdominal region of each mouse under Abacin anesthesia, after which a thin section of tumor measuring 5 mm on a side was sutured to the cecum using absorbable surgical sutures to perform orthotopic transplant. The incision was sutured using absorbable surgical sutures and the mice were warmed and promptly awakened from anesthesia.
The test compound was suspended in sterilized distilled water containing 0.5% w/v carboxymethyl cellulose (CMC) and administered orally in a total of 9 doses consisting of one dose per day from days 3 to 7 after the tumor cell transplantation and from days 10 to 13 after the transplantation.
Antitumor activity was assessed according to the following equation to determine the tumor weight inhibitory rate (GI %) on day 14 after the transplantation. GI(%)=(1−Vt′/Vc′)×100 • Vt′: Mean tumor weight on day 14 in the group administered the test compound • Vc′: Mean tumor weight on day 14 in an untreated control group

[3] = system: mouse malignant melanoma B16-BL6 cells; test: Inhibitory effect on lung metastasis of mouse malignant melanoma B16-BL6 cells; format: in vivo; conditions: for LMI (%) lung metastasis inhibitory rate: 1 mg/kg per day oral for five days, colonies counted on 10th day, C57BL/6 mice; for Inhibition of lung metastasis (in words): 1 mg/kg oral, lung metastasis accelerating conditions (LPS)
Description: Groups of mice, each group containing ten C57BL/6 mice (female, age: 8 weeks) were transplanted intravenously into the tail vein with 3×10^4 of mouse malignant melanoma B16-BL6 cells.
The mice were, when necessary, administered intravenously into the tail vein with a bacterial lipopolysaccharide (LPS) in an amount of 3 μg each within one hour before transplantation of the melanoma cells so as to accelerate lung metastasis of the melanoma [M. J. Anasagasti et al., J. Natl. Cancer Research, 89, 645-651 (1997).]
As test compounds, Compound No. 2-118, a compound of formula (IV), a compound of formula (V) and indomethacin were employed, and each was suspended in sterilized distilled water containing 0.5% w/v of carboxymethyl cellulose (CMC), and the suspensions were orally administered at a dose of 1 mg/kg per day for five days starting from the day of the melanoma cell transplantation.
Inhibitory activities on lung metastasis of the melanoma cells were evaluated in terms of the lung metastasis inhibitory rate (LMI %) by counting the number of metastatic colonies in the lung on the 10th day after intravenous transplantation of the mouse malignant melanoma B16-BL6 cells at the tail. LMI(%)=(1−Nt/Nc)×100 • Nt: Numbers of lung metastatic colonies on the 10th day in groups administered with the test compounds; and • Nc: Numbers of lung metastatic colonies on the 10th day in control groups which were not administered with the test compounds.

[4] = system: mouse colon cancer Colon 26 cells; test: Test of anticachexia effects in mice bearing mouse colon cancer Colon 26 cells; format: in vivo
Excerpt: The test animals were CDF1 mice (females, 8 weeks old). They were employed in groups of 10 for each test. 1×10^6 mouse colon cancer Colon 26 cells were transplanted subcutaneously into each animal.
The test compounds were Compounds No. 1-94 and 2-78 as shown above in Tables 1 and 2, respectively, and having the following formulae: […]
Each test compound was suspended in sterilized distilled water containing 0.5% w/v carboxymethyl cellulose (CMC) and administered orally once per day starting on the day of the tumor cell transplantation.
Each test animal was weighed immediately after tumor cell transplantation, and the weight (A g) was recorded. Each animal was then weighed on day 19 after tumor cell transplantation, and the weight (B g) was recorded. The weight gain on day 19 after tumor cell transplantation was calculated as B−A=Δgt for the test animals. The experiment was repeated with two control groups: the first control group (control group 1) was transplanted with the tumor cells but were not treated with any test compound, and the weight gain is reported as Δgc1; the second control group (control group 2) were not transplanted with the tumor cells and were not treated with any test compound, and the weight gain is reported as Δgc2. The body weight recovery rate was determined according to the following formula based on the weight gain on day 19 after tumor cell transplantation, and this value was used as an indicator of the anticachexia effect. Body weight recovery rate (%)=(Δgt−Δgc1)/(Δgc2−Δgc1)×100
(§1) The procedure described in Example 1 was repeated, but using the compound of formula (III) as the test compound, and comparing the weight gain (Δgt) of the test group of animals to which the compound of formula (III) had been administered with a control group (Δgc) into which the tumor cells had been transplanted but to which no anti-tumor compound had been administered. The test animals were female CDF1 mice, 16 weeks old. Also, the weight gain was measured 22 days after tumor transplantation. The average body weight of each group of animals immediately after tumor transplantation was 25 to 26 g.
as §1, with “Example 2” for “Example 1”, “formula (IV)” for “formula (III)”, “mice, 7” for “mice, 16”, “measured 15” for “measured 22”, “was 20” for “was 25”, “to 21” for “to 26”
Test compounds [the compounds of formula (V), (VI), (VII), (VIII), (IX), (X), (XI), (XII), (XIII) and (XIV)] are administered in the same manner as described in Example 2.

[5] = system: mouse colon cancer Colon 26 cells; test: as above; format: in vivo; conditions: 15 days after tumor transplantation, female CDF1 mice 7 weeks old, control −3.4
[6] = system: mouse colon cancer Colon 26 cells; test: Life-prolonging activity test in mice bearing Colon 26 cells; format: in vivo; conditions: Example 7, animals of Examples 3 and 4; present tense, no data
Description: Observation of the mice used in Example 1 above was continued. The life-prolonging index was determined, based on the number of days each mouse survived, and this value was then used as an indicator of the life-prolonging effects of the test compounds.
It should be noted that, in the case of the group of mice treated with a test compound, oral administration of the respective compound once daily was continued on day 20 after tumor cell transplantation and beyond as well. Life-prolonging index (%)=(St/Sc−1)×100 • St: Median value of survival time (days) of the group of mice treated with a test compound • Sc: Median value of survival time (days) of the control group which were […].
The experiment reported in Example 5 was repeated with the animals used in Example 2. In the case of the group of mice treated with a test compound, oral administration of the respective compound once daily was continued on day 23 after tumor cell transplantation and beyond as well.
The experiment reported in Example 5 is repeated with the animals used in Examples 3 and 4.

[7] = system: experimental colonic polyposis; conditions: literature (Oshima 1996; Reddy 1996); cited from earlier work
[8] = system: human colon cancer cell lines; conditions: literature (Sheng 1997); COX-2 expressing line HCA-7; cited from earlier work
[9] = LPS 3 μg i.v. before transplantation

Compound: Cc1cc(-c2ccc(C)c(C)c2)n(-c2ccc(S(N)(=O)=O)cc2)c1 [Compound 2-118, 2-(3,4-dimethylphenyl)-4-methyl-1-(4-sulfamoylphenyl)pyrrole]
- GI (%) tumor growth inhibitory rate [1]: 54%
- GI(%) tumor weight inhibitory rate ([2]; 0.3 mg/kg oral): 12%
- GI(%) tumor weight inhibitory rate ([2]; 1 mg/kg oral): 35%
- GI(%) tumor weight inhibitory rate ([2]; 3 mg/kg oral): 45%
- GI(%) tumor weight inhibitory rate ([2]; 10 mg/kg oral): 59%
- LMI (%) lung metastasis inhibitory rate [3, 9]: 34%
- LMI (%) lung metastasis inhibitory rate ([3]; no LPS administration): 64%

Compound: Cc1ccc(-c2cc(C(F)(F)F)nn2-c2ccc(S(N)(=O)=O)cc2)cc1 [Compound (IV), 4-(5-p-tolyl-3-trifluoromethyl-1H-pyrazol-1-yl)benzenesulfonamide]
- Inhibition of mouse tumor cachexia and weight loss (in words) ([4]; Examples 1-3, 1-10 mg/kg oral): inhibited mouse tumor cachexia and reduced weight loss
- Average Weight Gain (Δg) ([5]; 1 mg/kg oral once per day): -1.2 g
- Average Weight Gain (Δg) ([5]; 3 mg/kg oral once per day): -1.3 g
- Average Weight Gain (Δg) ([5]; 10 mg/kg oral once per day): -0.6 g
- Life-prolongation (in words) [6]: exhibit pronounced life-prolongation
- Inhibition of lung metastasis (in words) [3]: had no such inhibitory activity
- LMI (%) lung metastasis inhibitory rate [3, 9]: 9%

Compound: CS(=O)(=O)Nc1cc2c(cc1Sc1ccc(F)cc1F)C(=O)CC2 [Compound (V), N-[6-(2,4-difluorophenylthio)-1-oxoindan-5-yl]methanesulfonamide]
- Inhibition of mouse tumor cachexia and recovery of body weight loss (in words) ([4]; Example 4, written in present tense, no data): inhibit mouse tumor cachexia and recover loss of average of body weight
- Life-prolongation (in words) [6]: exhibit pronounced life-prolongation
- Inhibition of lung metastasis (in words) [3]: had no such inhibitory activity
- LMI (%) lung metastasis inhibitory rate [3, 9]: 1%

Compound: CS(=O)(=O)c1ccc(C2=C(c3ccc(F)c(F)c3)C(=O)OC2)cc1 [MF-tricyclic]
- Inhibition of occurrence of experimental colonic polyposis (in words) [7]: inhibit the occurrence of experimental colonic polyposis

Compound: CS(=O)(=O)c1ccc(-n2nc(C(F)(F)F)cc2-c2ccc(F)cc2)cc1 [SC-58125]
- Growth inhibitory effects against human colon cancer cell lines (in words) [8]: exhibits growth inhibitory effects against certain types of human colon cancer cell lines
